Measured values from EP2311457A1, “Pharmaceutical compositions for treating infections with drug resistant mycobacteria” (priority 2009, dated 2011).
Converted amounts (≈) assume the structure as drawn.

test system: Mtb 09457/06 XDR; experiment: Drug susceptibility testing, radiometric MIC determination (BACTEC 460TB); conditions: Mycobacterium tuberculosis, read-out: minimal inhibitory concentrations

`C(=NNc1nncc2ccccc12)c1ccc(OCc2ccccc2)cn1` [PH22-6, 5-benzyloxypyridine-2-aldehyde-1'-phthalazinylhydrazone] and `C(=NNc1ncnc2ccccc12)c1ccc(OCc2ccccc2)cn1` [PH22-52, 5-benzyloxypyridine-2-aldehyde-4'-quinazolinylhydrazone] are the same in MIC: 1 µg/mL (≈ 2.81 µM) for the first, 1 µg/mL (≈ 2.81 µM) for the second.

`Cc1ccc(C=NNc2ccc3ccccc3n2)nc1` [PH22-14, 5-methylpyridine-2-aldehyde-2'-quinolylhydrazone] and `Cc1ccc(C=NNc2nncc3ccccc23)nc1` [PH22-16, 5-methyl-pyridine-2-aldehyde-1'-phthalazinylhydrazone] cannot be ordered by MIC: 0.5 µg/mL (≈ 1.91 µM) for the first, under 1 µg/mL for the second.

Going from `c1ccc(C(=NNc2ccc3ccccc3n2)c2ccccn2)cc1` [PH22-15, 2-benzoylpyridine-2'-quinolylhydrazone] to `c1ccc(C(=NNc2nncc3ccccc23)c2ccccn2)cc1` [PH22-22, 2-benzoylpyridine-1'-phthalazinylhydrazone], the MIC rises from 0.25 µg/mL (≈ 0.771 µM) to 5 µg/mL (≈ 15.4 µM) (20-fold).

`Cc1cccc(NN=Cc2ccccn2)n1` [PH22-31, pyridine-2-aldehyde-6'-methyl-2'-pyridylhydrazone] and `C(=NNc1ccccn1)c1ccc(OCc2ccccc2)cn1` [PH22-49, 5-benzyloxypyridine-2-aldehyde-2'-pyridylhydrazone] are the same in MIC: 1 µg/mL (≈ 4.71 µM) for the first, 1 µg/mL (≈ 3.29 µM) for the second.

Going from `CCc1ccc(C=NNc2cc(OC)ncn2)nc1` [PH22-33, 5-ethylpyridine-2-aldehyde-6'-methoxy-4'-pyrimidylhydrazone] to `Clc1ccc(NN=Cc2ccc(OCc3ccccc3)cn2)nn1` [PH22-51, 5-benzyloxypyridine-2-aldehyde-6'-chloro-3'-pyridazinylhydrazone], the MIC rises from under 0.125 µg/mL to 1 µg/mL (≈ 2.94 µM).
